The term IC50 denotes the concentration that inhibits the measured activity by half. Broadly, the inhibition is the relative decrease from the control value, in per cent. A higher inhibition goes with a strong effect.

In one experiment the target is T1, MRE11 (Homo sapiens, UniProt P49959).
T1 sequence (P49959 1-708): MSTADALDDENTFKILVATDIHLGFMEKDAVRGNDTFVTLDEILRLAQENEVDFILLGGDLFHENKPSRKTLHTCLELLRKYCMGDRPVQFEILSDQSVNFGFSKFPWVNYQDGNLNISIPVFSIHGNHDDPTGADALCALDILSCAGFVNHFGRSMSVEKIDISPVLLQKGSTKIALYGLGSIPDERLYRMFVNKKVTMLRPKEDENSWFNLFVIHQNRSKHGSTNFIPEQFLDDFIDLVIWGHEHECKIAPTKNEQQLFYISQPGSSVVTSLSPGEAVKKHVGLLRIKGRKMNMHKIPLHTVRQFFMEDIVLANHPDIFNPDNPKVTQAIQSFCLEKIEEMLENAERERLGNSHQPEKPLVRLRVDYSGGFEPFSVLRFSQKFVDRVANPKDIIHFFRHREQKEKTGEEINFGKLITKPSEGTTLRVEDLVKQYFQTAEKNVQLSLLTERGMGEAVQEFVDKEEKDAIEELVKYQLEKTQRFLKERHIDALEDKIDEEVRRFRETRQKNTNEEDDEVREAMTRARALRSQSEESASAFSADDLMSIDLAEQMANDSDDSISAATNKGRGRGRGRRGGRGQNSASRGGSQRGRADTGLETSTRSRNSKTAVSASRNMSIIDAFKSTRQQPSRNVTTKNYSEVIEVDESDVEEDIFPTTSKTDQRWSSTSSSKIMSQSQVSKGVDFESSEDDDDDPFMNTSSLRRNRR
Description: HTS nuclease assay (cleavage of CY5/BBQ-quenched 5' overhang DNA substrate). The experiment is classed as biochemical. To be noted: in vitro HTS nuclease assay; 18 nM MRE11, 40 nM DNA substrate; analysis at t=4 h. The procedure:
DNA Substrate Preparation
The DNA substrate is prepared by mixing the oligonucleotides listed below in a 1:1 ratio to reach a final concentration of 6 μM in a buffer containing 50 mM Tris pH 7.5, 100 mM NaCl and 8 mM MgCl2.
This substrate is a 5′ overhang, which is a preferred substrate of MRE11. […] The fluorescence increases upon substrate cleavage by MRE11, when separation of the two labels occur.
The conditions of the assay are as follows:
Total reaction volume: 5 μL
DNA substrate concentration in the reaction: 40 nM
Inhibitor concentration range tested: 7 nM-50 μM
Each plate contains a series of high and low signal control wells, where no compound is added:
High signal: MRE11+DNA substrate
Low signal: DNA substrate only
These are used during data evaluation.
Two extra assay controls:
1) To check whether unwinding of DNA by the compounds alone occurs.
The DNA substrate [CY5+BBQ(650)] is mixed with the compounds with no protein present.
The CY5 single stranded oligo is mixed with the compounds with no protein present.
The layout of the plates is created by the in-house software (CZ-Openscreen Prague) and this information is transferred to the robotic HTS station.
The reaction is started by the addition of DNA and the reaction time is counted from that moment, including a 15 min delay. Ten timepoints are measured:
The assay data analysis was performed at t=4 h. This corresponds to the time when the reaction is close to its maximum.
The data analysis was performed using the in-house software to obtain IC50 for each compound.

In the next experiment the test system is DR-GFP U2OS cells. Description: HR assay (GFP fluorescence after I-SceI transfection, flow cytometry). The conditions noted are these: Homo sapiens, inhibitor at 25 μM, 72 hours after transfection. The experiment is classed as cell-based. The procedure: DR-GFP U2OS cells (Methods in Molecular Biology 2012, 920, 379.) were transfected with 2.5 μg of I-SceI-expressing pCAGGS vector and treated with the inhibitors at 25 μM concentration. 72 hours after the transfection, the cells were trypsinized and resuspended in 3% BSA in PBS. GFP fluorescence detection was carried out using a BD FACSVerse flow cytometer and data analyzed with FlowJo software.

`N#C/C(=C\c1ccc(F)c(F)c1)C(=O)Nc1nc(-c2ccccc2)cs1` [Preparative Example 213, (E)-2-cyano-3-(3,4-difluorophenyl)-N-(4-phenylthiazol-2-yl)acrylamide]: the IC50 at MRE11 lay in the range of 10000 to 90000 nM. In the experiment with DR-GFP U2OS cells, the inhibition at 25 µM was less than 50%.
On the same counts, the results for `N#C/C(=C\c1ccc(O)c(O)c1)C(=O)Nc1nc(-c2ccccc2)c(Br)s1` [Preparative Example 196, (E)-N-(5-bromo-4-phenylthiazol-2-yl)-2-cyano-3-(3,4-dihydroxyphenyl)acrylamide] are less than 2000 nM and 50 to 75%.
For `N#C/C(=C\c1cnc(O)c(O)c1)C(=O)Nc1nc(-c2ccccc2)cs1` [Preparative Example 200, (E)-2-cyano-3-(5,6-dihydroxypyridin-3-yl)-N-(4-phenylthiazol-2-yl)acrylamide] the same measures were 2000 to 10000 nM and less than 50%.
For `CC(C)(C)c1csc(NC(=O)/C(C#N)=C/c2ccc(O)c(O)c2)n1` [Preparative Example 199, (E)-N-(4-(tert-butyl)thiazol-2-yl)-2-cyano-3-(3,4-dihydroxyphenyl)acrylamide] the same measures were less than 2000 nM and 50 to 75%.
Take `N#C/C(=C\c1ccc(O)c(O)c1)C(=O)Nc1nc(-c2ccc(Br)s2)cs1` [Preparative Example 219, (E)-N-(4-(5-bromothiophen-2-yl)thiazol-2-yl)-2-cyano-3-(3,4-dihydroxyphenyl) acrylamide]: the IC50 at MRE11 is less than 2000 nM. The compound also came in with an inhibition at 25 µM in the experiment with DR-GFP U2OS cells of more than 75%.
On the same counts, the results for `N#C/C(=C\c1ccc(O)c(O)c1)C(=O)Nc1nc(-c2ccncc2)cs1` [Preparative Example 188, (E)-2-cyano-3-(3,4-dihydroxyphenyl)-N-(4-(pyridin-4-yl)thiazol-2-yl)acrylamide] are less than 2000 nM and 50 to 75%.
On the same counts, the results for `CC(C)(C)c1cccc(-c2csc(NC(=O)/C(C#N)=C/c3ccc(O)c(O)c3)n2)c1` [Preparative Example 247, (E)-N-(4-(3-(tert-butyl)phenyl)thiazol-2-yl)-2-cyano-3-(3,4-dihydroxyphenyl)acrylamide] are 2000 to 10000 nM and 50 to 75%.
On the same counts, the results for `N#C/C(=C\c1ccc(O)c(O)c1)C(=O)Nc1nc(-c2cccnn2)cs1` [Preparative Example 186] are less than 2000 nM and less than 50%.
`N#CC(C(=O)Nc1nc(-c2ccccc2)cs1)=C(c1ccccc1)c1ccc(O)c(O)c1` (mixture of isomers) [Preparative Example 190, (E/Z)-2-cyano-3-(3,4-dihydroxyphenyl)-3-phenyl-N-(4-phenylthiazol-2-yl)acrylamide] displayed an IC50 on MRE11 of less than 2000 nM. Also, the inhibition at 25 µM in the experiment with DR-GFP U2OS cells was more than 75%.
In the case of `Cc1cc(O)ccc1/C=C(\C#N)C(=O)Nc1nc(-c2ccccc2)cs1` [Preparative Example 225, (E)-2-cyano-3-(4-hydroxy-2-methylphenyl)-N-(4-phenylthiazol-2-yl)acrylamide], at MRE11, the IC50 lay in the range of 10000 to 90000 nM. Moreover, the inhibition at 25 µM in the experiment with DR-GFP U2OS cells was less than 50%.
For `N#C/C(=C\c1ccc(O)c(O)c1)C(=O)Nc1nc(-c2ccc(F)cc2)cs1` [Preparative Example 187, (E)-2-cyano-3-(3,4-dihydroxyphenyl)-N-(4-(4-fluorophenyl)thiazol-2-yl)acrylamide] the same measures were less than 2000 nM and more than 75%.
Consider `N#C/C(=C\c1ccc(C(=O)O)cc1)C(=O)Nc1nc(-c2ccccc2)cs1` [Preparative Example 204, (E)-4-(2-cyano-3-oxo-3-((4-phenylthiazol-2-yl)amino)prop-1-en-1-yl)benzoic acid], for which the IC50 at MRE11 was 2000 to 10000 nM. Moreover, the inhibition at 25 µM with DR-GFP U2OS cells is less than 50%.
Turning to `CN(C)C(=O)c1ccc(-c2csc(NC(=O)/C(C#N)=C/c3ccc(O)c(O)c3)n2)cc1` [Preparative Example 181, (E)-4(2-(2-cyano-3-(3,4-dihydroxyphenyl)acrylamido)thiazol-4-yl)-N,N-dimethylbenzamide], the IC50 against MRE11 was less than 2000 nM. In the experiment with DR-GFP U2OS cells, this compound displayed an inhibition at 25 µM of less than 50%.

The values above are taken from patent publication US11584742B2 (MASARYKOVA UNIVERZITA, priority 2018, dated 2023).
